“Also recorded” adds a separate entry of the source. Counter-ions that a name gives are not always drawn. Where a SMILES comes first, the peptide text is derived from it. The star is where a group is joined. Cbz = O=C(OCc1ccccc1)*
Columns and labels:
IκBζ [1] = test: LPS-induced Ikb-ζ protein induction in BMDMs (western blot); format: cell-based, mouse; conditions: for LPS-induced Ikb-ζ induction, protein level: BMDMs treated with compound 12 h, then LPS 100 ng/ml; for effect of added agent on Ikb-ζ induction in DI-treated cells: DI 12 h plus agent
Protocol: (§1) BMDM were prepared from 6- to 12-week-old mice as described 1 and cultured in RMPI-1640 medium supplemented with 10% fetal bovine serum (FBS), 2 mM L-glutamine, and 100 U/mL penicillin-streptomycin and mouse recombinant M-CSF ([…], Peprotech). For experiments, cells were seeded at concentration 10^6 cells/mL in tissue culture plates of various formats. The cells were treated with DI (250 μM (unless stated otherwise), cat #592498, Sigma), DMF (50 μM (unless stated otherwise), cat #242926, Sigma), 3-(ethoxycarbonyl)but-3-enoic acid (3MI, 5 μM, Aris Pharmaceuticals Inc.), 4-ethoxy-2-methylene-4-oxobutanoic acid (MI, Aris Pharmaceuticals Inc.) for 12 h and activated with lipopolysaccharide (LPS; 100 ng/mL; E. coli 0111:B4, Sigma) for 1 h or as indicated. In some experiments cells were stimulated with combination of LPS (20 ng/mL) and IFN-γ (50 ng/mL; Peprotech). In some experiments cells were treated with α-tocopherol (AT, 10 μM; Sigma), MitoTEMPO (MT, 500 μM; Sigma), N-acetylcysteine (NAC, 1 mM, Sigma), ethylester of GSH (EtGSH; 1 mM, Santa Cruz) or buthionene sulfoximine (BSO, 500 μM, Sigma) alone or in combination with DI for 12 h. In some experiments BMDMs were treated with DI for 12 h and bafilomycin A (BafA, 100 nM, Sigma) or MG132 (10 μM, Selleckchem) were added 30 min before subsequent LPS stimulation.
(§2) Cells were lysed in RIPA Lysis Buffer System (Santa Cruz) and heat-denatured at 95° C. for 5 min in reducing sample buffer (BioRad). Proteins were separated on 4%-20% polyacrylamide gradient gels (BioRad) and transferred onto 0.45 μm pore size PVDF membranes (Millipore). Non-specific binding was blocked with 5% skim milk (or 5% BSA when phospho-proteins were analyzed), and membranes were probed with primary antibodies specific to Nrf2 (#12721), HO-1 (#70081), IκBζ (mouse specific, #93726), IκBζ(#9244), ATF3 (#D2Y5W), IRAK1 (#4504; sensitivity of IRAK1 detection diminishes upon IRAK1 K63 ubiquitination), phospho-IKK (Ser176/180, #2697), p62/SQSTM1 (#5114), phospho-eIF2α (Ser51, #9721), eIF2α (#5324) from Cell Signaling; GAPDH (sc-25778), IκBα (sc-1643), ATF3 (sc-188), SDHA (sc-166909) from Santa Cruz; NQO1 (ab28947) from Abeam, followed by incubation with anti-rabbit-HRP (1:10,000; sc-2030) or anti-mouse-HRP (1:10,000; sc-2031) from Santa Cruz and Clarity western ECL substrate (Bio-Rad). Membranes were exposed to X-Ray films (Research Products International Corp.) and developed using SRX-101A film processor (Konica Minolta). GAPDH run on the same blot was used as loading control. After scanning of original films image brightness of some blots was adjusted and bands were cropped using ImageJ. Densitometry was performed using ImageJ.

[2] = tested on: LY1 and LY7 (GCB) cell lines; test: DLBCL cell viability, resazurin assay, GCB subtype; format: cell-based; conditions: LY1 and LY7, 4 days, refreshed daily; DI 125-250 μM
HBL1 cells line (ABC) = test: DLBCL cell viability, resazurin assay, ABC subtype; format: cell-based; conditions: HBL1, 4 days, refreshed daily; DI 125-250 μM
IL6, IL12, IL1b, TNFα = test: Cytokine production in LPS-stimulated BMDMs (ELISA); format: cell-based, mouse; conditions: then LPS; for effect of co-treatment on DI-mediated inhibition of cytokine (IL6) production: agent added simultaneously with DI; for LPS-induced cytokine production: BMDMs pretreated 12 h
Protocol: as §1
Cytokines in cell supernatants were analyzed using DuoSet® ELISA kits according to manufacturer protocol (R&D Systems). The supernatants from BMDMs were diluted 1:4, from human blood monocytes 1:3.

IκBζ [3] = test: Ikb-ζ protein in LPS-stimulated human monocytes (western blot); format: cell-based; conditions: human blood monocytes, DI plus agent, LPS 1 h
Protocol: as §2, with “Membranes were exposed to X-Ray films (Research Products International Corp.) and developed using SRX-101A film processor (Konica Minolta). GAPDH run on the same blot was used as loading control. After scanning of original films image brightness of some blots was adjusted and bands were cropped using ImageJ. Densitometry was performed using ImageJ.” left out
Blood from healthy donors was acquired from LRS chambers supplied by the Mississippi Valley Regional Blood Center. […] After extensive washes to allow removal of non-adherent cells, monocytes (>95% purity) were harvested, counted and 5×10^5 cells were plated per well in 24-well plates. […]

ATF3 = ATF3 protein expression (western blot); format: cell-based, mouse; conditions: mouse macrophages and human monocytes, DI plus agent
Protocol: as §1, with “In some experiments BMDMs were treated with DI for 12 h and bafilomycin A (BafA, 100 nM, Sigma) or MG132 (10 μM, Selleckchem) were added 30 min before subsequent LPS stimulation.” left out
(§3) Cells were lysed in RIPA Lysis Buffer System (Santa Cruz) and heat-denatured at 95° C. for 5 min in reducing sample buffer (BioRad). […] Non-specific binding was blocked with 5% skim milk (or 5% BSA when phospho-proteins were analyzed), and membranes were probed with primary antibodies specific to Nrf2 (#12721), HO-1 (#70081), IκBζ (mouse specific, #93726), IκBζ(#9244), ATF3 (#D2Y5W), IRAK1 (#4504; sensitivity of IRAK1 detection diminishes upon IRAK1 K63 ubiquitination), phospho-IKK (Ser176/180, #2697), p62/SQSTM1 (#5114), phospho-eIF2α (Ser51, #9721), eIF2α (#5324) from Cell Signaling; GAPDH (sc-25778), IκBα (sc-1643), ATF3 (sc-188), SDHA (sc-166909) from Santa Cruz; NQO1 (ab28947) from Abeam, followed by incubation with anti-rabbit-HRP (1:10,000; sc-2030) or anti-mouse-HRP (1:10,000; sc-2031) from Santa Cruz and Clarity western ECL substrate (Bio-Rad). […]

STAT3 = STAT3 activation in LPS-stimulated BMDMs (western blot); format: cell-based, mouse; conditions: BMDMs, 12 h pretreatment
Protocol: as §1, with “In some experiments BMDMs were treated with DI for 12 h and bafilomycin A (BafA, 100 nM, Sigma) or MG132 (10 μM, Selleckchem) were added 30 min before subsequent LPS stimulation.” left out
as §3

Nrf2 = Nrf2 response in BMDMs (western blot, target genes); format: cell-based, mouse; conditions: 12 h treatment
Protocol: as §1, with “In some experiments BMDMs were treated with DI for 12 h and bafilomycin A (BafA, 100 nM, Sigma) or MG132 (10 μM, Selleckchem) were added 30 min before subsequent LPS stimulation.” left out
as §3

COC(=O)CC(=O)OC [DM, Dimethyl malonate, reference compound]
LPS-induced Ikb-ζ induction, protein level (IκBζ [1]): does not affect Ikbζ expression

C=C(CC(=O)OCC)C(=O)O [MI, 4-ethoxy-2-methylene-4-oxobutanoic acid]
LPS-induced Ikb-ζ induction, protein level (IκBζ [1]): did not
effect on IκBζ/IL-6 in combination with BSO (IκBζ [1]; BMDMs, compound plus BSO 500 μM, LPS): unlocked the effect

CN1CCCC(CN2c3ccccc3Sc3ccccc32)C1 (stereo not shown) [Mepazine, mepazine, reference compound]
growth / toxicity, GCB DLBCL [2]: not LY1 and LY7
growth / toxicity, ABC DLBCL (HBL1 cells line (ABC)): inhibited growth of HBL1

C=C(CC(=O)O)C(=O)OCC [3MI, 3-(ethoxycarbonyl)but-3-enoic acid]
LPS-induced Ikb-ζ induction, protein level (IκBζ [1]): inhibited IκBζ induction

CCOC(=O)CNC(=O)[C@H](CS)NC(=O)CC[C@H](N)C(=O)O [EtGSH, ethylester of GSH, reference compound]
effect of added agent on Ikb-ζ induction in DI-treated cells (IκBζ [1]; BMDMs, LPS): restored LPS-mediated IκBζ induction
effect of co-treatment on DI-mediated inhibition of cytokine (IL6) production (IL6, IL12, IL1b, TNFα): reversed the effect of DI
effect of co-treatment on IκBζ induction in DI-treated cells (IκBζ [3]): restored LPS-mediated IκBζ induction
DI-mediated ATF3 expression upon co-treatment (ATF3): efficiently decreased

CO/C1=C\C(C)=C\[C@@H](C)[C@@H](O)[C@@H](C)C/C(C)=C/C=C/[C@H](OC)[C@@H]([C@@H](C)[C@@H](O)[C@H](C)[C@@]2(O)C[C@@H](O)[C@H](C)[C@@H](C(C)C)O2)OC1=O [bafilomycin A, reference compound]
effect of added agent on Ikb-ζ induction in DI-treated cells (IκBζ [1]; BMDMs, LPS): neither rescued IκBζ induction

CC(C)C[C@@H](C=O)NC(=O)[C@H](CC(C)C)NC(=O)[C@H](CC(C)C)NC(=O)OCc1ccccc1 [MG132, reference compound] (Cbz-Leu-Leu-Leu-aldehyde)
effect of added agent on Ikb-ζ induction in DI-treated cells (IκBζ [1]; BMDMs, LPS): did not affect Ikb-ζ levels; also recorded: neither rescued IκBζ induction

COC(=O)/C=C/C(=O)OC [DMF, Dimethyl fumarate, reference compound]
STAT3 activation (Y705 phosphorylation) (STAT3): effective to inhibit STAT3 activation
LPS-induced Ikb-ζ induction, protein level (IκBζ [1]): strongly inhibited Ikb-ζ induction; also recorded: inhibited IκBζ induction
LPS-induced cytokine production (IL6, IL12, IL1b, TNFα): inhibit IL6 but not TNF production; also recorded: selective inhibition of IL-6
Nrf2 response (Nrf2 protein, target genes) (Nrf2): triggered Nrf2 response

CCCCS(=N)(=O)CCC(N)C(=O)O (stereo not shown) [BSO, buthionine sulfoximine, reference compound]
LPS-induced cytokine production (IL6, IL12, IL1b, TNFα): does not inhibit cytokine production
Nrf2 response (Nrf2 protein, target genes) (Nrf2): nor trigger Nrf2 response

CC(=O)N[C@@H](CS)C(=O)O [NAC, N-acetylcysteine]
effect of added agent on Ikb-ζ induction in DI-treated cells (IκBζ [1]; BMDMs, LPS): restored Ikb-ζ production; also recorded: restored LPS-mediated IκBζ induction
effect of co-treatment on DI-mediated inhibition of cytokine (IL6) production (IL6, IL12, IL1b, TNFα): completely abrogated effect of DI when added simultaneously with DI
effect of co-treatment on DI-mediated inhibition of cytokine (IL6) production (IL6, IL12, IL1b, TNFα; listed as N-acetylcysteine): reversed the effect of DI
DI-mediated ATF3 expression upon co-treatment (ATF3): efficiently decreased
